Test results taken from US20100324091A1, “Pyrazolone Derivative” (Kowa Company, Ltd., priority 2007, published 2010).

Assays:
C57BL/6 mice = experiment: Bleomycin-induced lung fibrosis model; type: in vivo; details: Mus musculus, po, 504 h, 0.3 mg/kg orally once a day, three weeks after intratracheal bleomycin 6 mg/kg, vs solvent-administered group, read-out: Inhibitory ratio against the increment in the lung hydroxyproline amount
Source text: It is reported that administering bleomycin into the trachea induces fibrosis of the lung. According to the pathological observation, it is similar to clinical idiopathic pulmonary fibrosis in terms of the thickened fibrosis of the alveolar wall, an increase in inflammatory cells, an increment in the amount of hydroxyproline, etc., and is often used as a lung fibrosis experimental model (Biochem. Biophys. Res. Comm., 288, 747 (2001)). Bleomycin hydrochloride (Bleo: Nippon Kayaku Co., Ltd.) dissolved in physiological saline was injected with 500 μl of compressed air into the bronchi of C57BL/6 mice (6 week old, female) at 6 mg/kg and 25 μl/body. Three weeks after the intratracheal administration, the amount of hydroxyproline in the lung was measured. The materials to be tested, at 0.3 mg/kg per dose, were suspended in 0.5% sodium carboxymethyl cellulose, and administered orally once a day. The effect of the present invention is represented by a inhibitory ratio against the increment in the amount of lung hydroxyproline of the solvent-administered group, and is shown in Table 3 below.

[1] = tested on: PAI-1 production in human bronchial epithelial cells (BEAS-2B); experiment: PAI-1 production inhibitory activity using bronchial epithelial cells; type: cell-based; details: BEAS-2B cells, TGF-β stimulation, 24 hrs, PAI-1 in supernatant by ELISA
Method: The effect of a compound against PAI-1 production activity was investigated using bronchial epithelial cells which reflect the PAI-1 concentration in the lung tissue involved in fibrosis (lung).
The effect against the amount of PAI-1 production was investigated using human bronchial epithelial cells (BEAS-2B). 0.1 ml of the BEAS-2B cells prepared to 2×10^5 cells/ml were added to each of the 96 wells of a collagen I coated plate, and precultured for 24 hrs. Then 0.1 ml of a medium containing […] of TGF-β was added, and after 24 hrs of incubation, the PAI-1 amount in the supernatant of the medium was measured by an ELISA kit. The materials to be tested were, after dissolved in dimethyl sulfoxide (the final concentration: 0.1% or lower), prepared to 0.2, 1, 5, and 25 μM with a phosphate buffer solution, and added to the preculture.

SMILES	inhibition in vivo at 0.3 mg/kg (C57BL/6 mice) [%]	IC50 [1] [nM]
COc1ccc(C2=NNC(=O)C2)cc1OC1Cc2ccccc2C1 [Compound No. 1, 3-(3-(2-indanyloxy)-4-methoxyphenyl)-5-pyrazolone]	77	–
COc1ccc(C2=NN(C)C(=O)C2)cc1OC1Cc2ccccc2C1 [Compound No. 2, 3-(3-(2-indanyloxy)-4-methoxyphenyl)-1-methyl-5-pyrazolone]	75	1420
COc1ccc(C2=NNC(=O)C2)cc1OC1CCCC1 [Compound No. 3, 3-(3-(cyclopentyloxy)-4-methoxyphenyl)-5-pyrazolone]	73	7590
COc1ccc(C2=NN(C)C(=O)C2)cc1OC1CCCC1 [Compound No. 4, 3-(3-(cyclopentyloxy)-4-methoxyphenyl)-1-methyl-5-pyrazolone]	73	–
COc1ccc(C2=NN(c3ccccc3)C(=O)C2)cc1OC1Cc2ccccc2C1 [Compound No. 5, 3-(3-(2-indanyloxy)-4-methoxyphenyl)-1-phenyl-5-pyrazolone]	75	–
COc1ccc(C2=NN(c3ccccc3)C(=O)C2)cc1OC1CCCC1 [Compound No. 6, 3-(3-(cyclopentyloxy)-4-methoxyphenyl)-1-phenyl-5-pyrazolone]	52	2560
COc1ccc(C2=NN(c3ccc(C(=O)O)cc3)C(=O)C2)cc1OC1CCCC1 [Compound No. 7, 3-(3-(cyclopentyloxy)-4-methoxyphenyl)-1-(4-hydroxycarbonylphenyl)-5-pyrazolone]	57	–
O=C1CC(c2ccc(OC(F)F)c(OC3CCCC3)c2)=NN1 [Compound No. 8, 3-(3-(cyclopentyloxy)-4-(difluoromethoxy)phenyl)-5-pyrazolone]	61	–
COc1ccc(C2=NNC(=O)C2)cc1OCC1CC1 [Compound No. 9, 3-(3-(cyclopropylmethoxy)-4-methoxyphenyl)-5-pyrazolone]	60	–
